# Source: patent US20250084056A1, “SUBSTITUTED OXOISOINDOLINYL PIPERIDINE-2,6-DIONE COMPOUNDS” (BRISTOL-MYERS SQUIBB COMPANY, priority 2023, published 2025)
# How the values were obtained:
# Assay type in all cases: cell-based
# Phospho-Rb (Ser807/811) = test: Phospho-Retinoblastoma (pRB) Cellular Assay; settings: Homo sapiens, OVCAR-3, NIH OVCAR3 cells, 24 hours; for IC50: concentration giving 50% response; for Emax: maximum response, reference compound at 10 μM = 100%, read-out: pRB Ymax
# Procedure, shortened: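 OVCAR3 cells seeded overnight, then dosed with serial dilutions for 24 h at 37° C. Lysed with kit mix plus phosphatase inhibitor, ≥4 h at room temperature, read on EnVision; 100% response set by reference compound at 10 μM, giving IC50 and Ymax.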
# GSPT1 = GSPT1 (Homo sapiens, UniProt P15170+Q96SW2); test: GSPT1 Cellular Degradation Assay (DF15-GSPT1-ePL); set-up: expressed in transfected cells; settings: DF15-GSPT1-ePL cells, 20 hours
# GSPT1, sequence (P15170 whole entry, the tested form may be a part): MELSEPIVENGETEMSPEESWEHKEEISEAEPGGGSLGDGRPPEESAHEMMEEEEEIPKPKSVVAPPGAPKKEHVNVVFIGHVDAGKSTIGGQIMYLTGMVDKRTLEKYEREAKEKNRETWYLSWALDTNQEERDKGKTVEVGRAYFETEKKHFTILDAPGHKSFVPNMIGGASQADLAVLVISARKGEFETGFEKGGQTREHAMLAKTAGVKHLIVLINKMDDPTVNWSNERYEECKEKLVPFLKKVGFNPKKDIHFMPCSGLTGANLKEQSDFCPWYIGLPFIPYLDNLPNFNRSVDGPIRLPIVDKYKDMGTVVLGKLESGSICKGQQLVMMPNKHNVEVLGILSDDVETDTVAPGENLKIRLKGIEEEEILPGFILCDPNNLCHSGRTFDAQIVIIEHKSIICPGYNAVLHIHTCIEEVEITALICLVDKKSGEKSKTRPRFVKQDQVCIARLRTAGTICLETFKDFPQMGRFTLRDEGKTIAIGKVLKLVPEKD
# GSPT1, sequence (Q96SW2 whole entry, the tested form may be a part): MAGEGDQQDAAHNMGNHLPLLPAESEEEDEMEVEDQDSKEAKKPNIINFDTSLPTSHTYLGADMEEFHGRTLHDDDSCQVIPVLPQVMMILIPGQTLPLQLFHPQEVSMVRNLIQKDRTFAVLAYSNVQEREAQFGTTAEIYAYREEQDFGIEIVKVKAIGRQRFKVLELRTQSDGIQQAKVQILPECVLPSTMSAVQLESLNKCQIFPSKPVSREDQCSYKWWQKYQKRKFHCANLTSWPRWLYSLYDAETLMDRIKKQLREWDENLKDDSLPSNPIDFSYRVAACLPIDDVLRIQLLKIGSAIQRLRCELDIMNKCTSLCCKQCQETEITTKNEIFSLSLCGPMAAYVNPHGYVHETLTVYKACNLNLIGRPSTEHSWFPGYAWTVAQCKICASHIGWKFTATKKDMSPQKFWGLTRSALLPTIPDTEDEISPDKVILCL
# GSPT1, sequence (Q16531 whole entry partner, the tested form may be a part): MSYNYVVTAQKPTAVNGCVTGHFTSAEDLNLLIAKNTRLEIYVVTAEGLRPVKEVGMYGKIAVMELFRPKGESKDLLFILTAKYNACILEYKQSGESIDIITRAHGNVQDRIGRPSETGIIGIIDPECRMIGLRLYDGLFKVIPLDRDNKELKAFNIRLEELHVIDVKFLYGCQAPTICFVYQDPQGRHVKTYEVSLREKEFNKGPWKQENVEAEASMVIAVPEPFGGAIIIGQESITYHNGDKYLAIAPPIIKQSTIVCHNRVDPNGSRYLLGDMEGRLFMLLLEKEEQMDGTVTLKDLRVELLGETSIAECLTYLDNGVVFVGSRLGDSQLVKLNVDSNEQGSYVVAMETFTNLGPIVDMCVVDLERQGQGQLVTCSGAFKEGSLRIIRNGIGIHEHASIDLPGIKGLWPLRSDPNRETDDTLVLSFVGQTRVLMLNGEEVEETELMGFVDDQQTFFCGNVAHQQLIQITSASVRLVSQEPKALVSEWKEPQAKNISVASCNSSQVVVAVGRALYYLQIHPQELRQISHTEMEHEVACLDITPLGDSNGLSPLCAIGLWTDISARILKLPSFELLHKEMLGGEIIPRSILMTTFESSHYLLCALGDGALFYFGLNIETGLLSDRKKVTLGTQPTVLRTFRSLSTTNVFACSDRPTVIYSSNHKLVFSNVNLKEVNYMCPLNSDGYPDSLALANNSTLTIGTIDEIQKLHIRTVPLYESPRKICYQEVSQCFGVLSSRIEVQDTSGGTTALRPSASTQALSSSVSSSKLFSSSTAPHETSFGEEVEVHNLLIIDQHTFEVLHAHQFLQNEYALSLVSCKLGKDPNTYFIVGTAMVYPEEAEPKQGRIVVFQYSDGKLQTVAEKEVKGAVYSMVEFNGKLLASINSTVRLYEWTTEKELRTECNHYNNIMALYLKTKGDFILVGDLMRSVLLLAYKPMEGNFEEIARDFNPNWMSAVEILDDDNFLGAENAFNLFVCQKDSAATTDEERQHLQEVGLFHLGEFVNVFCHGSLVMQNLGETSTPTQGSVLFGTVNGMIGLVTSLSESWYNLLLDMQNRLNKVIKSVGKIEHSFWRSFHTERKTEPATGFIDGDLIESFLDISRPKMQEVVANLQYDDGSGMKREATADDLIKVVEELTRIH
# Procedure, shortened: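 Human DF15 cells co-expressing a GSPT1–ePL fusion were treated with compound in RPMI 1640/10% FBS for 20 h at 37 °C. GSPT1 level was read by enzyme-fragment-complementation luminescence after 60 min with detection reagent. The reference degrader at […] defined 75% response; DC50 and Dmax were reported.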
# Cyclin E1 = Cyclin E1 (Homo sapiens, UniProt P24864+Q96SW2); test: Cyclin E1 Cellular Degradation Assay (MSD); set-up: endogenous in cells; host or cells: OVCAR3; settings: for DC50 / Dmax: Cyclin E1 cellular degradation; for Dmax: maximum degradation; for Ratio of GSPT1 DC50/Cyclin E1 DC50: selectivity for degradation of Cyclin E1 over GSPT1
# Cyclin E1, sequence (P24864 whole entry): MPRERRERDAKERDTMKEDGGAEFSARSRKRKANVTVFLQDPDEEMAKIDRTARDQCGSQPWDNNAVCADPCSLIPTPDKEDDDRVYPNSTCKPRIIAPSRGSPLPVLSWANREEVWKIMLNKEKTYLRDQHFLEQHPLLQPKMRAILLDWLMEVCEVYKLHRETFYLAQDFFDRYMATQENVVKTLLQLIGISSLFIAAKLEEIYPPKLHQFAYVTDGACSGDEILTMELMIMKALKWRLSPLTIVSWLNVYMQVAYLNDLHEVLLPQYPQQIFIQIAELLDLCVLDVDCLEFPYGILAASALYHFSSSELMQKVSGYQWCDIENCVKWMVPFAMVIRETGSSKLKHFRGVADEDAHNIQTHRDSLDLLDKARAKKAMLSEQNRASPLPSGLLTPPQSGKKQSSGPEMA
# Cyclin E1, sequence (Q96SW2 whole entry): as the sequence (Q96SW2 whole entry, the tested form may be a part) above
# Cyclin E1, sequence (Q16531 whole entry partner): as the sequence (Q16531 whole entry partner, the tested form may be a part) above
# Procedure, shortened: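 OVCAR3 cells treated with compound for 24 h at 37 °C, lysed, and cyclin E1 measured by MSD sandwich immunoassay (rabbit capture, mouse detection anti-CCNE1). Reference degrader at […] defined 110% response; DC50 and Dmax derived from response.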
Structure (SMILES),IC50 (Phospho-Rb (Ser807/811)) [nM],DC50 (GSPT1) [nM],Dmax (GSPT1) [%],DC50 (Cyclin E1) [nM],Dmax (Cyclin E1) [%],Ratio of GSPT1 DC50/Cyclin E1 DC50 (Cyclin E1),Emax (Phospho-Rb (Ser807/811)) [%]
"COc1cc(Oc2ccccc2C(F)F)ccc1NC(=O)OCc1ccc2c(c1OC)C(=O)N(C1CCC(=O)NC1=O)C2 (stereo not shown) [Example 88, [2-(2,6-dioxopiperidin-3-yl)-4-methoxy-3-oxo-2,3-dihydro-1H-isoindol-5-yl]methyl N-{4-[2-(difluoromethyl)phenoxy]-2-methoxyphenyl}carbamate]",227,> 14000,30,203,104,>69,10
"O=C1CCC(N2Cc3ccc(COC(=O)Nc4ccc(Oc5ccccc5)cc4)c(O[C@@H]4CCCOC4)c3C2=O)C(=O)N1 (stereo partly drawn) [Example 142, [2-(2,6-dioxopiperidin-3-yl)-4-[(3R)-oxan-3-yloxy]-3-oxo-2,3-dihydro-1H-isoindol-5-yl]methyl N-(4-phenoxyphenyl)carbamate]",145,> 14000,4,22,108,>635,139
"O=C1CCC(N2Cc3ccc(COC(=O)Nc4ccc(Oc5ccc(F)cc5)cc4F)c(OC4CCOCC4)c3C2=O)C(=O)N1 (stereo not shown) [Example 135, [2-(2,6-dioxopiperidin-3-yl)-4-(oxan-4-yloxy)-3-oxo-2,3-dihydro-1H-isoindol-5-yl]methyl N-[2-fluoro-4-(4-fluorophenoxy)phenyl]carbamate]",27,> 14000,5,17,110,>847,148
"COc1c(COC(=O)Nc2ccc(Oc3ccc(Cl)c(F)c3)cc2F)ccc2c1C(=O)N(C1CCC(=O)NC1=O)C2 (stereo not shown) [Example 91, [2-(2,6-dioxopiperidin-3-yl)-4-methoxy-3-oxo-2,3-dihydro-1H-isoindol-5-yl]methyl N-[4-(4-chloro-3-fluorophenoxy)-2-fluorophenyl]carbamate]",160,> 14000,20,223,106,>63,101

# Now from value to molecule, other results behind:
IC50 (Phospho-Rb (Ser807/811)) [nM],DC50 (GSPT1) [nM],Dmax (GSPT1) [%],DC50 (Cyclin E1) [nM],Dmax (Cyclin E1) [%],Ratio of GSPT1 DC50/Cyclin E1 DC50 (Cyclin E1),Structure (SMILES),Emax (Phospho-Rb (Ser807/811)) [%]
128,> 14000,31,375,112,>37,"COc1c(COC(=O)Nc2ccc(Oc3ccccc3F)cc2)ccc2c1C(=O)N(C1CCC(=O)NC1=O)C2 (stereo not shown) [Example 79, [2-(2,6-dioxopiperidin-3-yl)-4-methoxy-3-oxo-2,3-dihydro-1H-isoindol-5-yl]methyl N-[4-(2-fluorophenoxy)phenyl]carbamate]",120
19,> 14000,1,26,108,>547,"O=C1CCC(N2Cc3ccc(COC(=O)Nc4ccc(Oc5ccc(F)c(F)c5)cc4)c(OC4CCCCC4)c3C2=O)C(=O)N1 (stereo not shown) [Example 137, [4-(cyclohexyloxy)-2-(2,6-dioxopiperidin-3-yl)-3-oxo-2,3-dihydro-1H-isoindol-5-yl]methyl N-[4-(3,4-difluorophenoxy)phenyl]carbamate]",123
43,> 14000,2,12,110,">1,121","O=C1CCC(N2Cc3ccc(COC(=O)Nc4ccc(Oc5ccc(F)cc5)cc4F)c(O[C@@H]4CCCOC4)c3C2=O)C(=O)N1 (stereo partly drawn) [Example 147, [2-(2,6-dioxopiperidin-3-yl)-4-[(3R)-oxan-3-yloxy]-3-oxo-2,3-dihydro-1H-isoindol-5-yl]methyl N-[2-fluoro-4-(4-fluorophenoxy)phenyl]carbamate]",137
